Legend:
[1] = In vivo caries evaluation, Osborne-Mendel strain 2 rat; design: species or system rat (Osborne-Mendel strain 2); settings: Table I, 90 days
Excerpt: Standard laboratory techniques were used to complie the data presented. In each case the aldehyde was incorporated into each specimen's food in a one percent, by weight, quantity, over a period of several weeks. In all cases, caries reduction was noted.
The aldehydes tested in vivo were pyruvaldehyde, d,1-glyceraldehyde, crystalline dimer, glycolaldehyde, octanaldehyde, nonanaldehyde, decanaldehyde, undecylenic aldehyde, and lauric aldehyde. The polyaldehydes tested were dialdehyde starch, dialdehyde starch 50 percent oxidized, dialdehyde starch 90 percent oxidized, and dialdehyde galactomannan gum.
^(a) Agents were incorporated in the diet at a 1 percent level.

[2] = tested on: Mixed Oral Microorganisms; experiment: Acid production inhibition, broth-tube technique; settings: single agent
Excerpt: The data was compiled through well-known broth tube analysis techniques.
(a)Measured by broth-tube technique.

[3] = tested on: Mixed human oral microorganisms; experiment: Acid production inhibition by aldehydes in product vehicles, broth-tube technique; format: cell-based; settings: 1 to 5 percent aldehyde
Streptococcus spp. KI-R = experiment: as above; format: cell-based; settings: 1 to 5 percent aldehyde
L. casei = experiment: Growth inhibition of oral microorganisms in vitro, pour plates; format: cell-based, Lactobacillus casei; settings: Table IX
Procedure: (§1) (a)Determined on freshly grown pure cultures. Pour plates were incubated

Streptococcus spp. FA-1 = experiment: as above; format: cell-based; settings: Table IX
Procedure: as §1

[4] = tested on: Lactobacillus casei and Streptococcus sp. FA-1; experiment: Acid-production inhibition by broth-tube assay, 0.1 percent of compound; format: cell-based; settings: Table X; 0.1 percent of compound; read-out: Activity, Acid-Production Inhibition%
Procedure: ^(a) Activity was measured by broth-tube assay to determine percent
(§2) acid-production inhibition obtained by Lactobacillus casei and
Streptococcus sp. FA-1 in the presence of 0.1 percent of compound.
^(a) Activity was measured by broth-tube assay to determine percent o
as §2
Streptococcus sp. FA-1 in the presence of 0.1% of compound. Symbols

[5] = Student's test, 95 percent confidence limit
[6] = in compressed candy tablet, 2 h incubation
[7] = in compressed candy tablet, 5 h incubation
[8] = in compressed candy tablet, 24 h incubation
[9] = in dextrose syrup, 2 h incubation
[10] = in dextrose syrup, 5 h incubation
[11] = in dextrose syrup, 24 h incubation
[12] = in sucrose syrup, 2 h incubation
[13] = in sucrose syrup, 5 h incubation
[14] = in sucrose syrup, 24 h incubation
[15] = in tooth powder (aqueous extract), 2 h incubation
[16] = in tooth powder (aqueous extract), 5 h incubation
[17] = in tooth powder (aqueous extract), 24 h incubation
[18] = in toothpaste (aqueous extract), 2 h incubation
[19] = in toothpaste (aqueous extract), 5 h incubation
[20] = in toothpaste (aqueous extract), 24 h incubation
[21] = pour plates incubated 48 - 72 hours

## CC(=O)C=O [Pyruvaldehyde]
[1]; 1 percent in diet, L-2000 control 15.08 (pyruvaldehyde test), 13.94 (glycolaldehyde test)
  Caries Score, Mean Incidence: 5.95
[1]; 1 percent in diet, L-2000 control 38.80 (pyruvaldehyde test), 35.38 (glycolaldehyde test)
  Caries Score, Mean Extent: 14.55
[1]; [5]
  Caries Extent Reduction, statistical evaluation: Significant
  Caries Incidence Reduction, statistical evaluation: Significant
[2]; 0.005 percent
  Acid Production Inhibition: 5%
[2]; 0.007 percent
  Acid Production Inhibition: 5%
[2]; 0.009 percent
  Acid Production Inhibition: 7%
[2]; 0.011 percent
  Acid Production Inhibition: 7%
other
  Solubility: water soluble
[3]; [6]
  Acid Production Inhibition: 0 Per Cent
[3]; [7]
  Acid Production Inhibition: 89 Per Cent
[3]; [8]
  Acid Production Inhibition: 78 Per Cent
[3]; [9]
  Acid Production Inhibition: 15 Per Cent
[3]; [10]
  Acid Production Inhibition: 89 Per Cent
[3]; [11]
  Acid Production Inhibition: 83 Per Cent
[3]; in hard candy, 2 h incubation
  Acid Production Inhibition: 20 Per Cent
[3]; in hard candy, 5 h incubation
  Acid Production Inhibition: 93 Per Cent
[3]; in hard candy, 24 h incubation
  Acid Production Inhibition: 84 Per Cent
[3]; in mouthwash, 2 h incubation
  Acid Production Inhibition: 0 Per cent
[3]; in mouthwash, 5 h incubation
  Acid Production Inhibition: 94 Per cent
[3]; in mouthwash, 24 h incubation
  Acid Production Inhibition: 87 Per cent
[3]; [12]
  Acid Production Inhibition: 77.8 Per cent
[3]; [13]
  Acid Production Inhibition: 92.1 Per cent
[3]; [14]
  Acid Production Inhibition: 91.8 Per cent
[3]; [15]
  Acid Production Inhibition: 0 Per cent
[3]; [16]
  Acid Production Inhibition: 86 Per cent
[3]; [17]
  Acid Production Inhibition: 80 Per cent
[3]; [18]
  Acid Production Inhibition: 0 Per cent
[3]; [19]
  Acid Production Inhibition: 0 Per cent
[3]; [20]
  Acid Production Inhibition: 0 Per cent
Streptococcus spp. KI-R; [6]
  Acid Production Inhibition: 0 Per Cent
Streptococcus spp. KI-R; [7]
  Acid Production Inhibition: 30 Per Cent
Streptococcus spp. KI-R; [8]
  Acid Production Inhibition: 83 Per Cent
Streptococcus spp. KI-R; [9]
  Acid Production Inhibition: 57 Per Cent
Streptococcus spp. KI-R; [10]
  Acid Production Inhibition: 86 Per Cent
Streptococcus spp. KI-R; [11]
  Acid Production Inhibition: 82 Per Cent
Streptococcus spp. KI-R; in hard candy, 2 h incubation
  Acid Production Inhibition: 40 Per Cent
Streptococcus spp. KI-R; in hard candy, 5 h incubation
  Acid Production Inhibition: 87 Per Cent
Streptococcus spp. KI-R; in hard candy, 24 h incubation
  Acid Production Inhibition: 86 Per Cent
Streptococcus spp. KI-R; in mouthwash, 2 h incubation
  Acid Production Inhibition: 0 Per cent
Streptococcus spp. KI-R; in mouthwash, 5 h incubation
  Acid Production Inhibition: 0 Per cent
Streptococcus spp. KI-R; in mouthwash, 24 h incubation
  Acid Production Inhibition: 86 Per cent
Streptococcus spp. KI-R; [12]
  Acid Production Inhibition: 37.5 Per cent
Streptococcus spp. KI-R; [13]
  Acid Production Inhibition: 82.3 Per cent
Streptococcus spp. KI-R; [14]
  Acid Production Inhibition: 86.4 Per cent
Streptococcus spp. KI-R; [15]
  Acid Production Inhibition: 0 Per cent
Streptococcus spp. KI-R; [16]
  Acid Production Inhibition: 0 Per cent
Streptococcus spp. KI-R; [17]
  Acid Production Inhibition: 0 Per cent
Streptococcus spp. KI-R; [18]
  Acid Production Inhibition: 0 Per cent
Streptococcus spp. KI-R; [19]
  Acid Production Inhibition: 0 Per cent
Streptococcus spp. KI-R; [20]
  Acid Production Inhibition: 0 Per cent

## CCCCCCCCCC=O [Decanaldehyde]
L. casei; control 8 × 10^8 to 1 × 10^9
  Bacterial Population, Experimental: 4 × 10^2
L. casei; [21]
  Inhibition (growth): > 99.99%
Streptococcus spp. FA-1; control 2 × 10^8 to 5 × 10^8
  Bacterial Population, Experimental: 0
Streptococcus spp. FA-1; [21]
  Inhibition (growth): 100%
[4]
  inhibition at 0.1 %: 99 to 100%
[3]; [6]
  Acid Production Inhibition: 100 Per Cent
[3]; [7]
  Acid Production Inhibition: 100 Per Cent
[3]; [8]
  Acid Production Inhibition: 19 Per Cent
[3]; [9]
  Acid Production Inhibition: 0 Per Cent
[3]; [10]
  Acid Production Inhibition: 95 Per Cent
[3]; [11]
  Acid Production Inhibition: 91 Per Cent
[3]; [12]
  Acid Production Inhibition: 78 Per cent
[3]; [13]
  Acid Production Inhibition: 94 Per cent
[3]; [14]
  Acid Production Inhibition: 95 Per cent
[3]; [18]
  Acid Production Inhibition: 0 Per cent
[3]; [19]
  Acid Production Inhibition: 0 Per cent
[3]; [20]
  Acid Production Inhibition: 0 Per cent
Streptococcus spp. KI-R; [6]
  Acid Production Inhibition: 50 Per Cent
Streptococcus spp. KI-R; [7]
  Acid Production Inhibition: 85 Per Cent
Streptococcus spp. KI-R; [8]
  Acid Production Inhibition: 98 Per Cent
Streptococcus spp. KI-R; [9]
  Acid Production Inhibition: 35 Per Cent
Streptococcus spp. KI-R; [10]
  Acid Production Inhibition: 91 Per Cent
Streptococcus spp. KI-R; [11]
  Acid Production Inhibition: 89 Per Cent
Streptococcus spp. KI-R; [12]
  Acid Production Inhibition: 75 Per cent
Streptococcus spp. KI-R; [13]
  Acid Production Inhibition: 98 Per cent
Streptococcus spp. KI-R; [14]
  Acid Production Inhibition: 100 Per cent
Streptococcus spp. KI-R; [18]
  Acid Production Inhibition: 40 Per cent
Streptococcus spp. KI-R; [19]
  Acid Production Inhibition: 100 Per cent
Streptococcus spp. KI-R; [20]
  Acid Production Inhibition: 67 Per cent

From patent publication US4048299A, “Anticaries confectionaries and oral health products” (William Wrigley, Jr. Co., priority 1970, dated 1977)
